{
  "source": "patent US20240408119A1",
  "about": "“DELIVERY OF THERAPEUTIC ALKALOID COMPOUNDS” (priority 2022, published 2024)",
  "key": {"SERT": {"target": "SERT (Homo sapiens (Human), UniProt P31645)", "assay": "SERT Inhibition Assay (Neurotransmitter Transporter Fluorescence assay, stable 5HTT cells)", "assay_type": "cell-based", "procedure": "SERT inhibition was measured using a Neruotransmitter Transportation Fluorescence assay. Briefly, stable 5HTT cells were prepared in a 384 microwell plate. Compounds were prepared by in assay buffer (20 mM HEPES, 0.1% BSA). The compounds were added to the plated cells and incubated for 30 minutes at 37° C. 25 μL of dye solution (Molecular Devices Neurotransmitter Transporter Uptake Assay Kit) was added per well and incubated for 30 minutes at 37° C. The plates were then read on a plate reader."}, "[1]": {"assay": "Hydrolysis Assay - Condition 1 (SGF)", "assay_type": "physicochemical", "settings": "SGF with pepsin pH 1.5, 37° C., 0.5 mM"}, "[2]": {"assay_type": "in vitro ADME, human", "settings": "prodrug remaining, 5 μM, 37° C.", "procedure": "(§1) Each test was carried out in duplicate for each time point; 0 min, 15 min, 30 min, 60 min, 120, 240 min. […]"}, "[3]": {"assay_type": "in vitro ADME, mouse", "settings": "prodrug remaining, 5 μM, 37° C.", "procedure": "as §1"}, "[4]": {"assay": "Plasma Stability Assay (Example A3), rat plasma", "assay_type": "in vitro ADME", "settings": "prodrug remaining, 10 μM, 37° C.", "text": "(§2) The data is represented in the table below."}, "[5]": {"assay": "Metabolic Stability in Human Hepatocytes", "assay_type": "in vitro ADME", "settings": "cryopreserved human hepatocytes, 37° C.", "procedure,_shortened": "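Cryopreserved human hepatocytes at 5×10^5 viable cells/mL in serum-free medium, 100 μM compound stock added 1:100, 37° C. with shaking, sampled 0.5–120 min. Acetonitrile quench, LC-MS/MS; t1/2 = 0.693/k from regression slope, CLint = kV/N in μL/min/10^6 cells.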"}, "[6]": {"assay": "Plasma Stability Assay (Example A3), human plasma", "assay_type": "in vitro ADME", "settings": "prodrug remaining, 10 μM, 37° C.", "text": "as §2"}, "[7]": {"assay": "Hydrolysis Assay - Condition 2 (DI Water)", "assay_type": "physicochemical", "settings": "25° C., 0.5 mM"}},
  "note": "Like-named read-outs stand apart in the source and are kept apart here.",
  "data": [
    {"smiles": "COc1ccc([C@@]23CCC(OP4(=O)OCC(C)(C)CO4)=C[C@@H]2N(C)CC3)cc1OC", "note": "[Compound 323, 2-[[(3aS,7aS)-3a-(3,4-dimethoxyphenyl)-1-methyl-3,4,5,7a-tetrahydro-2H-indol-6-yl]oxy]-5,5-dimethyl-1,3,2λ^5-dioxaphosphinane 2-oxide]", "values": [
      {"measurement": "IC50", "setting": "SERT", "value": 0.0627, "unit": "µM"},
      {"measurement": "Condition 1 Conversion (%)", "setting": "[1]; 1 min", "value": 0, "unit": "%"},
      {"measurement": "Condition 1 Conversion (%)", "setting": "[1]; 5 min", "value": 0, "unit": "%"},
      {"measurement": "Condition 1 Conversion (%)", "setting": "[1]; 30 min", "value": 0, "unit": "%"},
      {"measurement": "Condition 1 Conversion (%)", "setting": "[1]; 1 h", "value": 0, "unit": "%"},
      {"measurement": "Condition 1 Conversion (%)", "setting": "[1]; 4 h", "value": 0, "unit": "%"},
      {"measurement": "Condition 1 Conversion (%)", "setting": "[1]; 24 h", "value": 0, "unit": "%"},
      {"measurement": "Human Plasma Prodrug (%)", "setting": "[2]; 0 min", "value": 100, "unit": "%"},
      {"measurement": "Human Plasma Prodrug (%)", "setting": "[2]; 15 min", "value": 76.6, "unit": "%"},
      {"measurement": "Human Plasma Prodrug (%)", "setting": "[2]; 30 min", "value": 64.5, "unit": "%"},
      {"measurement": "Human Plasma Prodrug (%)", "setting": "[2]; 60 min", "value": 38.1, "unit": "%"},
      {"measurement": "Human Plasma Prodrug (%)", "setting": "[2]; 120 min", "value": 12.8, "unit": "%"},
      {"measurement": "Human Plasma Prodrug (%)", "setting": "[2]; 240 min", "value": 1.60, "unit": "%"},
      {"measurement": "Mouse Plasma Prodrug (%)", "setting": "[3]; 0 min", "value": 100.0, "unit": "%"},
      {"measurement": "Mouse Plasma Prodrug (%)", "setting": "[3]; 15 min", "value": ">99", "unit": "%"},
      {"measurement": "Mouse Plasma Prodrug (%)", "setting": "[3]; 30 min", "value": ">99", "unit": "%"},
      {"measurement": "Mouse Plasma Prodrug (%)", "setting": "[3]; 60 min", "value": 94.1, "unit": "%"},
      {"measurement": "Mouse Plasma Prodrug (%)", "setting": "[3]; 120 min", "value": 71.9, "unit": "%"},
      {"measurement": "Mouse Plasma Prodrug (%)", "setting": "[3]; 240 min", "value": 50.3, "unit": "%"},
      {"measurement": "Rat Plasma Prodrug (%)", "setting": "[4]; 0 min", "value": 100.00, "unit": "%"},
      {"measurement": "Rat Plasma Prodrug (%)", "setting": "[4]; 10 min", "value": ">99", "unit": "%"},
      {"measurement": "Rat Plasma Prodrug (%)", "setting": "[4]; 30 min", "value": 95.5, "unit": "%"},
      {"measurement": "Rat Plasma Prodrug (%)", "setting": "[4]; 60 min", "value": 82.0, "unit": "%"},
      {"measurement": "Rat Plasma Prodrug (%)", "setting": "[4]; 120 min", "value": 58.8, "unit": "%"},
      {"measurement": "Rat Plasma Prodrug (%)", "setting": "[4]; 240 min", "value": 34.0, "unit": "%"},
      {"measurement": "half-life at 1 μM", "setting": "[5]", "value": 5.45, "unit": "h"},
      {"measurement": "hepatocyte CLint at 1 μM", "setting": "[5]", "value": 4.2, "unit": "µL/min/1e6 cells"},
      {"measurement": "Human Plasma Prodrug (%)", "setting": "[6]; 0 min", "value": 100.00, "unit": "%"},
      {"measurement": "Human Plasma Prodrug (%)", "setting": "[6]; 10 min", "value": 86.9, "unit": "%"},
      {"measurement": "Human Plasma Prodrug (%)", "setting": "[6]; 30 min", "value": 70.8, "unit": "%"},
      {"measurement": "Human Plasma Prodrug (%)", "setting": "[6]; 60 min", "value": 52.7, "unit": "%"},
      {"measurement": "Human Plasma Prodrug (%)", "setting": "[6]; 120 min", "value": 27.0, "unit": "%"},
      {"measurement": "Human Plasma Prodrug (%)", "setting": "[6]; 240 min", "value": 9.3, "unit": "%"},
      {"measurement": "Condition 2 Conversion (%)", "setting": "[7]; 1 min", "value": 0, "unit": "%"},
      {"measurement": "Condition 2 Conversion (%)", "setting": "[7]; 5 min", "value": 0, "unit": "%"},
      {"measurement": "Condition 2 Conversion (%)", "setting": "[7]; 30 min", "value": 0, "unit": "%"},
      {"measurement": "Condition 2 Conversion (%)", "setting": "[7]; 1 h", "value": 0, "unit": "%"},
      {"measurement": "Condition 2 Conversion (%)", "setting": "[7]; 4 h", "value": 0, "unit": "%"},
      {"measurement": "Condition 2 Conversion (%)", "setting": "[7]; 24 h", "value": 0, "unit": "%"}
    ]}
  ]
}
